Experimental data: PMC3402085 (ACS medicinal chemistry letters, 2012)

How the values were obtained:
[1] = test system: PC-12 cells expressing mutant G93A SOD1; assay: Mutant SOD1-induced cytotoxicity protection assay; assay type: cell-based; conditions: result in words
[2] = test system: primary cortical neurons; assay: Primary cortical neuron protection assay; assay type: cell-based; conditions: result in words
[3] = test system: PC-12 cells expressing mutant G93A SOD1; conditions: result in words; previously prepared compound; cited from earlier work

| SMILES | protection against mutant SOD1 induced toxicity in PC-12 cells [1] | activity in cortical neurons [2] | inhibition of protein aggregation in PC-12 cells expressing mutant G93A SOD1 [3] |
| --- | --- | --- | --- |
| C[C@H](Oc1cc(C(F)(F)F)cc(C(F)(F)F)c1)C1CC(=O)CC(=O)C1 [1b] | protective | active | – |
| O=C1CC(=O)CC(c2cc(C(F)(F)F)cc(C(F)(F)F)c2)C1 [compound 13] | – | – | potent inhibitor |
| O=C1CC(=O)CC([C@@H]2C[C@H]2c2cc(C(F)(F)F)cc(C(F)(F)F)c2)C1 [2b] | protective | active | – |
